Where a name gives a salt, the structure may show the parent alone.
Experiments:
[1] = target: T1, TBK1 (Homo sapiens, UniProt Q9UHD2); test: TBK Biochemical Assay; settings: read-out: TBK1 IC50
T1 sequence (Q9UHD2 1-729): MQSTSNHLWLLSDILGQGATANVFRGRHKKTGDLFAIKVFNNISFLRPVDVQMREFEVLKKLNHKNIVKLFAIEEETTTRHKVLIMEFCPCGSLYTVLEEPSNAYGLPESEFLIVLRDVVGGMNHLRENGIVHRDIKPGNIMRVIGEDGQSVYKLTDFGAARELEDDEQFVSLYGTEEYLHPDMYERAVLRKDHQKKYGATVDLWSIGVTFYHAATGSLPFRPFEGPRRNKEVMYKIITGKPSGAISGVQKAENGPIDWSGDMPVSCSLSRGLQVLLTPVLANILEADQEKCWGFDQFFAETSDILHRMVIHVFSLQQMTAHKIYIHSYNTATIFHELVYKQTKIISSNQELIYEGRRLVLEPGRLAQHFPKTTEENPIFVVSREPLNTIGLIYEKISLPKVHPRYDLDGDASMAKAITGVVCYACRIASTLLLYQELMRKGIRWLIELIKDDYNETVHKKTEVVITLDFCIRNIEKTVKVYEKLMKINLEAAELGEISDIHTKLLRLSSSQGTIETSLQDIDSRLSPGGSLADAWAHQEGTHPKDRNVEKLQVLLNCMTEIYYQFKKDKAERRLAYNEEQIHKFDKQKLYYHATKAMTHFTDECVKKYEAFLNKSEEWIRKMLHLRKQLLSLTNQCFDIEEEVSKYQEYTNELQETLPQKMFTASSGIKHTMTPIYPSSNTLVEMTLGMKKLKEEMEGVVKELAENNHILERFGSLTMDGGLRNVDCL
Experimental: Example 482: TBK Biochemical Assay
(§1) Test compounds were transferred into Labcyte polypropylene 384 well plates (P055-25) and diluted to 3 mM using DMSO. 3 mM test compounds were dispensed using Labcyte ECHO dose response module into Greiner 784075 plates (columns 3-12 and 13-22, 10 point 1:4) so that high concentration was 30 uM final. 100 uM of a reference compound (1 uM final high concentration). Backfilling was performed if necessary so that all wells contain 1% DMSO final: […]
(§2) add 75 nl DMSO/well into columns 1, 2 and 24 using Labcyte Echo. add 75 nl 1.0 mM staurosporine/well into column 23 using Labcyte Echo ([…]) add 4.5 ul enzyme/well using multidrop dispenser add 3 ul substrate/well using multidrop dispenser incubate at 25° C. in Heidolph incubator for 90 min. add 7.5 ul 2× stop buffer using multidrop dispenser read on labchip ez reader II using TBK1.job
(§3) Raw data files were opened in the Caliper LabChip Reviewer program (Version 3.0.265.0 SP2) and peak assignments were adjusted to reflect “substrate first” with the software's post-run analysis options. A spline-fit baseline was applied using the software's analysis algorithm.

[2] = target: T2, IKKε (Homo sapiens, UniProt Q14164); test: IKKe Biochemical Assay; settings: read-out: IKKε IC50
T2 sequence (Q14164 1-716): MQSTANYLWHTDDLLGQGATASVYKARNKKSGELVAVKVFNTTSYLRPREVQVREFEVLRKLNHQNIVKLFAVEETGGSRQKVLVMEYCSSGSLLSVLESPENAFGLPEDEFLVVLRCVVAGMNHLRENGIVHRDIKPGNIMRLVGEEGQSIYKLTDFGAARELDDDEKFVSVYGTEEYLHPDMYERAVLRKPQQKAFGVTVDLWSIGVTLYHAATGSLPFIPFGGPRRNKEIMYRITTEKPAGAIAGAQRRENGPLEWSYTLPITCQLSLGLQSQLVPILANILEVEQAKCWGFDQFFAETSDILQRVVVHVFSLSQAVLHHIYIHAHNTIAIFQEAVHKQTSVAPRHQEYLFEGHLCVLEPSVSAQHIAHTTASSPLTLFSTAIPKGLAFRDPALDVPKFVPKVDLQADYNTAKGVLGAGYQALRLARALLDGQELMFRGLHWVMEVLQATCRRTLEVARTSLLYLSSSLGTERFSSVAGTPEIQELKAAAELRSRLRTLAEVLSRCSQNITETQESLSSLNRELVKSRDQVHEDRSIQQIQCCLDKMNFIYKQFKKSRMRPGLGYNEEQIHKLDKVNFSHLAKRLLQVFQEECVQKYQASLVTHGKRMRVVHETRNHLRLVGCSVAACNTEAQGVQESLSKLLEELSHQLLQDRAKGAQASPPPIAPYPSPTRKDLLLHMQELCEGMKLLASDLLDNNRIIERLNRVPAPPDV
Experimental: as §1, with “(Greiner” for “Greiner”
as §2, with “C.” for “C. in Heidolph incubator”, “buffer” for “buffer using multidrop dispenser”, “IKKε. job” for “TBK1.job”
as §3

IC50 [1]	IC50 [2]	SMILES
100 to 1000 nM	100 to 1000 nM	C[C@@H]1COC[C@H](C)[C@H]1Oc1ccc(-c2ccnc3cc(-c4ccc(C(=O)N(C)C)cc4)oc23)cc1C#N (single isomer, unassigned) [Compound 219, 4-(7-(3-cyano-4-(3,5-dimethyl-tetrahydro-2H-pyran-4-yloxy)phenyl)furo[3,2-b]pyridin-2-yl)-N,N-dimethylbenzamide hydrochloride]
100 to 1000 nM	100 to 1000 nM	C[C@@H]1COC[C@@H](C)C1Oc1ccc(-c2ccnc3cc(-c4ccc(C(=O)N(C)C)cc4)oc23)cc1C#N (single isomer, unassigned) [Compound 220, 4-(7-(3-cyano-4-(3,5-dimethyl-tetrahydro-2H-pyran-4-yloxy)phenyl)furo[3,2-b]pyridin-2-yl)-N,N-dimethylbenzamide hydrochloride]
100 to 1000 nM	100 to 1000 nM	C[C@@H]1COC[C@H](C)[C@@H]1Oc1ccc(-c2ccnc3cc(-c4ccc(C(=O)N(C)C)cc4)oc23)cc1C#N (single isomer, unassigned) [Compound 221, 4-(7-(3-cyano-4-(3,5-dimethyl-tetrahydro-2H-pyran-4-yloxy)phenyl)furo[3,2-b]pyridin-2-yl)-N,N-dimethylbenzamide hydrochloride]
< 100 nM	< 100 nM	COc1cc(C(=O)N(C)C)ccc1-c1cc2nccc(-c3ccc(OC4[C@H](C)COC[C@H]4C)c(C#N)c3)c2o1 (single isomer, unassigned) [Compound 231, 4-(7-(3-cyano-4-(3,5-dimethyl-tetrahydro-2H-pyran-4-yloxy)phenyl)furo[3,2-b]pyridin-2-yl)-3-methoxy-N,N-dimethylbenzamide]
	> 5000 nM	CN(C)C(=O)c1ccc(-c2cc3nccc(-c4ccc(Oc5ccncc5)c(C#N)c4)c3o2)cc1 [Compound 200, 4-{7-[3-Cyano-4-(pyridin-4-yloxy)-phenyl]-furo[3,2-b]pyridin-2-yl}-N,N-dimethyl-benzamide]
	100 to 1000 nM	COC(=O)c1ccc(-c2cc3nccc(-c4ccc(OC5CC6(COC6)C5)c(C#N)c4)c3o2)cc1 [Compound 204]
	> 5000 nM	COC(=O)c1ccc(-c2cc3nccc(-c4ccc(Oc5ccccc5F)c(C#N)c4)c3o2)cc1 [Compound 205]
	100 to 1000 nM	COc1cc(C(=O)N(C)C)ccc1-c1cc2nccc(-c3ccc(OC4CCOCC4OCc4ccccc4)c(C#N)c3)c2o1 (stereo not drawn) [Compound 211]
	> 5000 nM	CC1CC(Oc2ccc(-c3ccnc4cc(-c5ccc(C(=O)N(C)C)cc5)oc34)cc2C#N)CC(C)O1 (stereo not drawn) [Compound 213, 4-{7-[3-Cyano-4-(2,6-dimethyl-tetrahydro-pyran-4-yloxy)-phenyl]-furo[3,2-b]pyridin-2-yl}-N,N-dimethyl-benzamide]

More lines, now with the values behind:

SMILES	IC50 [1]	IC50 [2]
COc1cc(C(=O)N[C@@H]2CCNC[C@@H]2F)ccc1-c1cc2nccc(-c3ccc(NC4CCOCC4)c(C#N)c3)c2o1 (single isomer, unassigned) [Compound 251, 4-(7-(3-cyano-4-(tetrahydro-2H-pyran-4-ylamino)phenyl)furo[3,2-b]pyridin-2-yl)-N-(3-fluoropiperidin-4-yl)-3-methoxybenzamide hydrochloride]	< 100 nM	< 100 nM
COc1cc(C(=O)N[C@@H]2CCNC[C@@H]2F)ccc1-c1cc2nccc(-c3cc(F)c(NC4CCOCC4)c(C#N)c3)c2o1 (single isomer, unassigned) [Compound 253, 4-(7-(3-cyano-5-fluoro-4-(tetrahydro-2H-pyran-4-ylamino)phenyl)furo[3,2-b]pyridin-2-yl)-N-(3-fluoropiperidin-4-yl)-3-methoxybenzamide hydrochloride]	< 100 nM	< 100 nM
COc1cc(C(=O)N[C@@H]2CCNC[C@@H]2F)ccc1-c1cc2nccc(-c3cc(F)c(NC4CCOCC4)c(C#N)c3)c2o1 (single isomer, unassigned) [Compound 254, 4-(7-(3-cyano-5-fluoro-4-(tetrahydro-2H-pyran-4-ylamino)phenyl)furo[3,2-b]pyridin-2-yl)-N-(3-fluoropiperidin-4-yl)-3-methoxybenzamide hydrochloride]	100 to 1000 nM	< 100 nM
CN(C)C(=O)c1ccc(-c2cc3nccc(-c4ccc(N5CC[C@H](F)C5)c(C#N)c4)c3o2)nc1 (single isomer, unassigned) [Compound 272, 6-(7-(3-cyano-4-(3-fluoropyrrolidin-1-yl)phenyl)furo[3,2-b]pyridin-2-yl)-N,N-dimethylnicotinamide hydrochloride]	< 100 nM	< 100 nM
CN(C)C(=O)c1cnc(-c2cc3nccc(-c4cc(F)c(NC5CCOCC5)c(C#N)c4)c3o2)c(F)c1 [Compound 248, 6-(7-(3-cyano-5-fluoro-4-(tetrahydro-2H-pyran-4-ylamino)phenyl)furo[3,2-b]pyridin-2-yl)-5-fluoro-N,N-dimethylnicotinamide]		100 to 1000 nM
COc1cc(C(=O)N(C)C)cnc1-c1cc2ncc(C3CC3)c(-c3ccc(NC4CCOCC4)c(C#N)n3)c2o1 [Compound 353, 6-(7-[6-cyano-5-[(oxan-4-yl)amino]pyridin-2-yl]-6-cyclopropylfuro[3,2-b]pyridin-2-yl)-5-methoxy-N,N-dimethylpyridine-3-carboxamide hydrochloride]	> 5000 nM	
COc1cc(C(=O)N(C)CCO)cnc1-c1cc2ncc(C(C)C)c(-c3ccc(OC4CCOCC4)c(C#N)n3)c2o1 [Compound 359, 6-[7-[6-cyano-5-(oxan-4-yloxy)pyridin-2-yl]-6-(propan-2-yl)furo[3,2-b]pyridin-2-yl]-N-(2-hydroxyethyl)-5-methoxy-N-methylpyridine-3-carboxamide hydrochloride]	> 5000 nM	
COc1cc(C(=O)N(C)C)cnc1-c1cc2ncc(C(C)C)c(-c3ccc(NC4CCOCC4)c(C#N)n3)c2o1 [Compound 361, 6-(7-[6-cyano-5-[(oxan-4-yl)amino]pyridin-2-yl]-6-(propan-2-yl)furo[3,2-b]pyridin-2-yl)-5-methoxy-N,N-dimethylpyridine-3-carboxamide]	> 5000 nM	
COc1ccc(C#N)cc1-c1ccnc2cc(-c3ncc(C(=O)N(C)C)cc3OC)oc12 [Compound 490, 6-{7-[5-Cyano-2-methoxy-phenyl)-furo[3,2-b]pyridin-2-yl}-5-methoxy-N,N-dimethyl-nicotinamide]	> 5000 nM	
COc1cc(C(=O)N(C)C)cnc1-c1cc2ncc(C3CC3)c(-c3ccc(NC4CCOCC4)c(C#N)c3)c2o1 [Compound 522, 6-(7-[3-cyano-4-[(oxan-4-yl)amino]phenyl]-6-cyclopropylfuro[3,2-b]pyridin-2-yl)-5-methoxy-N,N-dimethylpyridine-3-carboxamide]	> 5000 nM	
